We go through eight compounds from ChEMBL document CHEMBL3044728, “Synthesis and biological activity of new (E)-alpha-(Methoxyimino)benzeneacetate derivatives containing a substituted pyrazole ring” (2010).

In general, inhibition refers to the change of the read-out against control, counted positive when it falls.

Common to all, as to assay type: functional
Experiment [1] relates to Phytophthora infestans. The experiment in a line: Antifungal activity against Phytophthora infestans assessed as inhibition at 25 mg/L relative to control.
The subject of experiment [2] is Blumeria graminis. The experiment can be described thus: Antifungal activity against Blumeria graminis assessed as inhibition at 400 mg/L relative to control.
For experiment [3], the system named is Blumeria graminis. The experiment can be described thus: Antifungal activity against Blumeria graminis assessed as inhibition at 1.56 mg/L relative to control.
Experiment [4] relates to Pyricularia oryzae. The experiment in a line: Antifungal activity against Magnaporthe oryzae assessed as inhibition at 0.92 mg/L relative to control.
Experiment [5] deals with Pyricularia oryzae. The experiment can be described thus: Antifungal activity against Magnaporthe oryzae assessed as inhibition at 25 mg/L relative to control.
Experiment [6] concerns Pseudoperonospora cubensis. The experiment in a line: Antifungal activity against Pseudoperonospora cubensis assessed as inhibition at 400 mg/L relative to control.
Experiment [7] relates to Pseudoperonospora cubensis. The experiment can be described thus: Antifungal activity against Pseudoperonospora cubensis assessed as inhibition at 25 mg/L relative to control.
Experiment [8] has as its system Pseudoperonospora cubensis. The experiment in a line: Antifungal activity against Pseudoperonospora cubensis assessed as inhibition at 6.25 mg/L relative to control.
The subject of experiment [9] is Leucania. The experiment in a line: Insecticidal activity against Leucania venalba at 600 mg/L relative to control.
Experiment [10] deals with Phytophthora infestans. The experiment in a line: Antifungal activity against Phytophthora infestans assessed as inhibition at 0.92 mg/L relative to control.
In experiment [11] the test system is Blumeria graminis. The experiment can be described thus: Antifungal activity against Blumeria graminis assessed as inhibition at 6.25 mg/L relative to control.
For experiment [12], the system named is Myzus persicae. The experiment in a line: Insecticidal activity against Myzus persicae (green peach aphid) at 600 mg/L relative to control.
The subject of experiment [13] is Tetranychus cinnabarinus. The experiment in a line: Acaricidal activity against Tetranychus cinnabarinus (carmine spider mite) at 600 mg/L relative to control.
For experiment [14], the system named is Culex pipiens pallens. The experiment can be described thus: Insecticidal activity against Culex pipiens pallens (mosquito) at 600 mg/L relative to control.

For the compound `CNC(=O)/C(=N/OC)c1ccccc1COc1c(C)c(-c2ccc(OC)cc2)nn1C`, the inhibition at 25 µg/mL came to 80% in experiment [1], 100% in experiment [5] and 85% in [7]. Also, the inhibition at 400 µg/mL in [2] is 100%; in experiment [6], 98%. Moreover, the inhibition at 1.56 µg/mL in experiment [3] worked out at 75%. In addition, the inhibition at 0.92 µg/mL in [4] and in experiment [10] was 50% in each case. Moreover, the inhibition at 6.25 µg/mL was determined as 55% in [8] and 100% in experiment [11]. In experiment [9], the Activity is 100%.

In the case of `CNC(=O)/C(=N/OC)c1ccccc1COc1c(C)c(-c2cc(C)ccc2C)nn1C`, the inhibition at 25 µg/mL in experiment [1], in [5] and in [7] was 100% each time. Besides, the inhibition at 400 µg/mL in [2] and in experiment [6] was 100% in each case. For the same compound, the inhibition at 1.56 µg/mL in [3] was determined as 0%. In addition, the inhibition at 0.92 µg/mL in experiment [4] and in experiment [10] was 100% throughout. Also, the Activity in experiment [12] came to 100%. In addition, the inhibition at 6.25 µg/mL in experiment [8] was 50%; in experiment [11] it was 40%.

As for `CNC(=O)/C(=N/OC)c1ccccc1COc1cc(-c2ccc(C)c(C)c2)nn1C`, the inhibition at 25 µg/mL in experiment [1], in experiment [5] and in [7] was 100% each time. Also, the inhibition at 400 µg/mL in experiment [2] and in experiment [6] was 100% in each case. Also, the inhibition at 1.56 µg/mL in experiment [3] came out at 40%. Further, the inhibition at 0.92 µg/mL in [4] was 50%; in [10] it was 80%. Besides, the Activity in experiment [13] and in experiment [12] was 100% throughout. Further, the values for the inhibition at 6.25 µg/mL in [8] and in [11] were 85% and 100%, respectively.

With `CNC(=O)/C(=N/OC)c1ccccc1COc1cc(-c2ccc(Cl)cc2)nn1C`, the inhibition at 400 µg/mL in experiment [2] and in [6] was 100% in each case. Moreover, the inhibition at 1.56 µg/mL in experiment [3] was 0%. Also, the Activity in experiment [12] and in experiment [14] was 100% each time. Further, the inhibition at 25 µg/mL in experiment [5] was determined as 0%; in [7], 100%. The inhibition at 6.25 µg/mL was determined as 60% in [8] and 40% in [11].

Regarding `CCOc1ccc(-c2nn(C)c(OCc3ccccc3/C(=N\OC)C(=O)OC)c2C)cc1`, the inhibition at 25 µg/mL came out at 100% in experiment [1], 100% in experiment [5] and 40% in experiment [7]. Moreover, the inhibition at 400 µg/mL in experiment [2] and in experiment [6] was 100% in each case. Besides, the inhibition at 1.56 µg/mL in experiment [3] came out at 50%. The inhibition at 0.92 µg/mL in experiment [4] and in experiment [10] was 50% each time. The compound also yielded an Activity in experiment [13] of 100%. Also, the inhibition at 6.25 µg/mL in [11] stood at 100%.

On to `CO/N=C(/C(=O)OC)c1ccccc1COc1c(C)c(-c2cc(C)ccc2C)nn1C`, for which the inhibition at 25 µg/mL in experiment [1] was 100%; in experiment [5] it was 100%; in experiment [7] it was 80%. Further, the inhibition at 400 µg/mL in experiment [2] and in experiment [6] was 100% throughout. Moreover, the inhibition at 1.56 µg/mL in experiment [3] is 20%. Moreover, the results for the inhibition at 0.92 µg/mL in experiment [4] and in [10] were 100% and 60%, respectively. For the same compound, the Activity in experiment [12] and in experiment [9] was 100% in each case. Besides, the inhibition at 6.25 µg/mL in [8] and in experiment [11] was 40% in each case.

As for `CO/N=C(/C(=O)OC)c1ccccc1COc1cc(-c2ccc(C)c(C)c2)nn1C`, the inhibition at 25 µg/mL in experiment [1] was 100%; in experiment [5] it was 100%; in experiment [7], 40%. In addition, the results for the inhibition at 400 µg/mL in experiment [2] and in [6] were 100% and 98%, respectively. In addition, the values for the inhibition at 0.92 µg/mL in experiment [4] and in experiment [10] were 50% and 80%, respectively. The Activity in experiment [13] and in [12] was 100% in each case. In addition, the inhibition at 6.25 µg/mL in experiment [11] stood at 30%.

Take `CO/N=C(/C(=O)OC)c1ccccc1COc1cc(-c2ccc(Cl)cc2)nn1C`: the inhibition at 25 µg/mL in experiment [1] turned out to be 80%; in experiment [5], 80%; in experiment [7], 90%. Also, the inhibition at 400 µg/mL in experiment [2] and in [6] was 100% in each case. Further, the inhibition at 6.25 µg/mL in [8] stood at 80%; in experiment [11] it was 40%. Besides, the inhibition at 0.92 µg/mL in [10] was 50%. In experiment [14], this compound yielded an Activity of 100%.
